The target in series [1] is T1, AChE (Homo sapiens, UniProt P22303). Nature of the series: biochemical. Particulars: for IC50: Ellman method, 30 °C, 25 min, pH 8.0, mean ± SD; for Selectivity for AChE, IC50 (BChE)/IC50 (AChE): ratio IC50 (BChE)/IC50 (AChE). The method, then: (§1) AChE/BChE activity assays were carried out by Ellman method with slight modification. Each compound was dissolved in Tween 80 and diluted with water to various concentrations immediately before use. The assay solution which contained 40 μL AChE/BChE, 100 μL acetylthiocholine iodide/S-butyrylthiocholine iodide, 2.76 ml Na2HPO4/NaH2PO4 buffer (pH 8.0, 0.1 M), and 100 μL tested compound solution with different concentrations were incubated at 30 °C for 25 min. Then, the reaction was terminated with 100 μL 20% sodium dodecylsulphate (SDS), then 100 μL 10 mM […] (DTNB) as chromogenic agent was added into the mixture. […] The IC50 values were calculated by Bliss method and expressed as Mean ± SD of the replicates.
On the technique in general: Ellman's reagent forms a yellow product with free thiols.

For a further series, the target named is BChE (Homo sapiens, UniProt P06276). The series is described as follows: biochemical. Particulars: Ellman method, 30 °C, 25 min, pH 8.0; mean ± SD. As to the method:
as §1

A short description of series [2]: Octanol/buffer partition coefficient by shake flask method. The format is physicochemical. Particulars: octanol/buffer (PBS) pH 7.4, shake-flask, 37 °C, HPLC; for logP: octanol/phosphate buffer solution (PBS). As to the method:
The aqueous phase was replaced by phosphate buffer solution (PBS, pH = 7.4). The assay mixture containing tested compounds was shaken at 37 °C over night and then centrifuged at 2000 rpm for 20 min, followed by the analysis with HPLC. […] Experiments were conducted in triplicate and log p values were calculated.

In series [3] the target is T1, AChE. Nature of the series: Kinetic study of AChE inhibition (Lineweaver-Burk). The format is biochemical. The method, then:
Kinetic characterisation of AChE/BChE was performed by a modified method previous reported. Compound 7a was pre-incubated with the enzyme at 30 °C, then 100 µL acetylthiocholine iodide including five concentrations was added into the assay mixture and kinetic characterisation was conducted spectrometrically at 412 nm. Additionally, the parallel control experiment was made without compound 7a in the mixture.
Compound 7a was selected for kinetic studies. The linear Lineweaver–Burk equation of the Michaelis–Menten was applied to evaluate the inhibition profile. The analysis of the steady-state inhibition data of compound 7a was shown in Supplement data: Table 2.

Some results are limits rather than exact numbers.

BChE, sequence (P06276 29-602): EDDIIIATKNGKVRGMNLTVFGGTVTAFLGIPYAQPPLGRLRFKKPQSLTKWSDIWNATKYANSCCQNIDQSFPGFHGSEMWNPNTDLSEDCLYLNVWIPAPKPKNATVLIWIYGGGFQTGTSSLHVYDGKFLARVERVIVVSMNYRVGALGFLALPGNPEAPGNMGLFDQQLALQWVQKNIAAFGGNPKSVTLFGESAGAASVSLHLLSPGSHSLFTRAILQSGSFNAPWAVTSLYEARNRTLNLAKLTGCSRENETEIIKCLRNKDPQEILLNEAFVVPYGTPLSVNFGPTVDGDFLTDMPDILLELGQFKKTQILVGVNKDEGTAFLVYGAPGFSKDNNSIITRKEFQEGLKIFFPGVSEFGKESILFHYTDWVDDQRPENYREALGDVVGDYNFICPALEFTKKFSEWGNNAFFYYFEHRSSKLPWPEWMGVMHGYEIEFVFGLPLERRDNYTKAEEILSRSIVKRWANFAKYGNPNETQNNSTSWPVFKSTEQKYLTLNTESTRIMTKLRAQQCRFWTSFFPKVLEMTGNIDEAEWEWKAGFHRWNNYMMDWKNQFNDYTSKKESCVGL
T1 sequence (P22303 32-614): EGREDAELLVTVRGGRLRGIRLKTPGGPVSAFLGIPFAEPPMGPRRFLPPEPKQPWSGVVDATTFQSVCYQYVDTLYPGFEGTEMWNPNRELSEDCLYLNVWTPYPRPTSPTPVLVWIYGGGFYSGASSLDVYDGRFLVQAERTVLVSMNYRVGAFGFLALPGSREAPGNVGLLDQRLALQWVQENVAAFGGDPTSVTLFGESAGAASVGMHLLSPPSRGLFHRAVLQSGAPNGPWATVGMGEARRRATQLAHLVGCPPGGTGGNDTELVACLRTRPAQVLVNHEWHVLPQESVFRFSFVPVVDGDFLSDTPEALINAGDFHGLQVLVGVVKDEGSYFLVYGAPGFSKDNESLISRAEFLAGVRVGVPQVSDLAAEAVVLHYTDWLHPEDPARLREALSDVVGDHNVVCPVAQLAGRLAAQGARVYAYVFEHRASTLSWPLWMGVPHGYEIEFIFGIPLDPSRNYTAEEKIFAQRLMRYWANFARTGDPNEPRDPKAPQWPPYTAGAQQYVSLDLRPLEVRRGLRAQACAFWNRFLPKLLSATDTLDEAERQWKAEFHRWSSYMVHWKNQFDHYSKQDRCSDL

As a reminder, the IC50 is the point on the concentration scale where inhibition reaches its midpoint. As a reminder, the logP is the decadic logarithm of the partition coefficient of the neutral form, usually between octanol and water. Higher therefore signals a more lipophilic compound. For `CN(C)CCOc1ccc(NC(=O)c2cccnc2)cc1` [Compound 7d], on AChE [1], the IC50 was found to be 5.76 ± 0.41 µM and the “Selectivity for AChE, IC50 (BChE)/IC50 (AChE)” value (from here on “Selectivity for AChE, IC50”) is given as 42.80. Also, the IC50 against BChE stood at 246.5 ± 1.85 µM. Besides, in series [2], the logP is 1.33.
For `CN(C)CCOc1cccc(NC(=O)c2ccncc2)c1` [Compound 7b], the IC50 turned out to be 38.4 ± 2.19 µM against AChE [1] and 48.6 ± 2.23 µM against BChE. The “Selectivity for AChE, IC50” value on AChE [1] was 1.26. In series [2], this compound gave a logP of 1.31.
On to `CN(C)CCOc1cccc(NC(=O)c2ccccn2)c1` [Compound 7h], for which the IC50 against AChE [1] came out at 73 ± 3.03 µM; at BChE, 35.9 ± 0.94 µM. The “Selectivity for AChE, IC50” value on AChE [1] is on record as 0.492. The same compound showed a logP in series [2] of 1.37.
With `CN(C)CCOc1cccc(NC(=O)c2cccnc2)c1` [Compound 7e], at AChE [1], inhibition was half-maximal at 13.2 ± 1.73 µM (IC50) and the “Selectivity for AChE, IC50” value amounted to 1.67. The compound also showed an IC50 against BChE of 22.1 ± 1.01 µM. This compound also had a logP in series [2] of 1.37.
As for `CN(C)CCOc1ccc(NC(=O)c2ccccc2)cc1` [Compound 4a], on AChE [1], 18.2 ± 1.16 µM corresponded to half-maximal inhibition (IC50) and the “Selectivity for AChE, IC50” value turned out to be 7.84. This compound returned an IC50 on BChE of 143 ± 5.56 µM. The compound further registered a Log p in series [2] of 1.12.
Turning to `CN(C)CCOc1ccccc1NC(=O)c1ccncc1` [Compound 7c], at AChE [1], the IC50 is above 500 µM and the “Selectivity for AChE, IC50” value is reported as below 0.0892. At BChE, this compound had an IC50 of 44.6 ± 1.16 µM. Also, the log partition coefficient (logP) in series [2] came to 1.37.
Taken in the same sequence, the figures for `CN(C)CCOc1ccccc1NC(=O)c1ccccn1` [Compound 7i] were above 500 µM, below 0.0549, 27.4 ± 2.31 µM and 1.18.
Taken in the same sequence, the figures for `CN(C)CCOc1ccc(NC(=O)c2ccccn2)cc1` [Compound 7g] were 4.68 ± 0.3 µM, 24.4, 114 ± 7.73 µM and 1.14.
As usually defined, the Ki is a measure of affinity in units of concentration, obtained from inhibition or displacement. For `CN(C)CCOc1ccc(NC(=O)c2ccncc2)cc1` [Compound 7a], the figures for the IC50 against AChE [1] and against BChE were 2.49 ± 0.19 µM and 247 ± 7.54 µM, respectively. Besides, on AChE [1], the “Selectivity for AChE, IC50” value was 99.4. Further, the logP in series [2] is 1.26. Further, the Vmax on AChE [3] (AChE, 0.85 µM compound 7a) was 0.017 ΔAmin-1; at AChE [3] (AChE, 1.70 µM compound 7a), 0.014 ΔAmin-1; on AChE [3] (AChE, 3.41 µM compound 7a), 0.012 ΔAmin-1. Also, on AChE [3] (AChE, Lineweaver-Burk analysis), the “non-competitive constant (Ki')” value was determined as 3.28 µM. Besides, the Ki at AChE [3] (AChE, Lineweaver-Burk analysis, read-out: competitive inhibition constant (Ki)) is 4.69 µM. Moreover, at AChE [3] (Lineweaver-Burk analysis), the “type of inhibition against AChE” value is listed as “mixed-type inhibition”.
As for `CN(C)CCOc1cccc(NC(=O)c2ccccc2)c1` [Compound 4b], at AChE [1], the 50% inhibitory concentration (IC50) is 75.8 ± 4.13 µM and the “Selectivity for AChE, IC50” value is reported as 0.276. Also, half-maximal inhibition at BChE (IC50) was put at 20.9 ± 1.61 µM. In addition, the log partition coefficient (logP) in series [2] is 1.18.
Turning to `CN(C)CCOc1ccccc1NC(=O)c1cccnc1` [Compound 7f], the half-maximal inhibitory concentration (IC50) was found to be 75.8 ± 0.84 µM at AChE [1] and 33.4 ± 1.37 µM against BChE. For the same compound, the “Selectivity for AChE, IC50” value on AChE [1] was found to be 0.441. Further, the logP in series [2] came out at 1.42.
As for `CN(C)CCOc1ccccc1NC(=O)c1ccccc1` [Compound 4c], at AChE [1], the IC50 was above 500 µM and the “Selectivity for AChE, IC50” value was below 0.0359. This compound also displayed an IC50 on BChE of 18 ± 1 µM. For the same compound, in series [2], the logP is 1.23.
